In the experiment the target is T1, Human Axl (Homo sapiens, UniProt P30530).
T1 construct: Human AXL (residues 464-885)
T1 sequence (P30530 1-894 Q764R): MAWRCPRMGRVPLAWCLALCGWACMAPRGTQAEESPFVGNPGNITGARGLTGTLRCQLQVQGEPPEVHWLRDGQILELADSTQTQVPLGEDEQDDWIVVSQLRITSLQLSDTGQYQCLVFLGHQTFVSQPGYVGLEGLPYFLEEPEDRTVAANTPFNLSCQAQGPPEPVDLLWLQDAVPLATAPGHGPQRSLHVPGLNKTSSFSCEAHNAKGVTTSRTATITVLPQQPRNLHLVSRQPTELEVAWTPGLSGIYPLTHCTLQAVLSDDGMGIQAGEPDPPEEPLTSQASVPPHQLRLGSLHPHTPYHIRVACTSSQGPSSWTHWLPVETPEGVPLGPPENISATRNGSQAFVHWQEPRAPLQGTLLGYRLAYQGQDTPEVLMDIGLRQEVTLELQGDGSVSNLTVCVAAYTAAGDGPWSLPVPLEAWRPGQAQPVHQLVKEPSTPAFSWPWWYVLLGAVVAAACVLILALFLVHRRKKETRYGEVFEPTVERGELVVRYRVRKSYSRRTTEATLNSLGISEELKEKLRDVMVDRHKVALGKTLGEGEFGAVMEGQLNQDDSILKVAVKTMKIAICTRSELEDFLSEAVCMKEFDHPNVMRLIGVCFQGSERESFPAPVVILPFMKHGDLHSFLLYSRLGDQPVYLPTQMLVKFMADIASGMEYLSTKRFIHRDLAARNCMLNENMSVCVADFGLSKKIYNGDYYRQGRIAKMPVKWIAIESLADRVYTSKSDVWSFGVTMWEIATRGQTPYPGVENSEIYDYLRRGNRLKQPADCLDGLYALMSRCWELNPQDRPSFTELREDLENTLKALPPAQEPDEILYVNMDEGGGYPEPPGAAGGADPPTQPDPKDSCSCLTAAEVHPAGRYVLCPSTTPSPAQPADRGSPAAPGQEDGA
The experiment is described as follows: Human AXL kinase assay (33P radiometric / HTRF KinEase). As to conditions: protocols of Examples A-1 and/or A-2. The experiment is classed as biochemical. In general terms: In TR-FRET formats the signal depends on donor and acceptor labels being close together.

By IC50 is commonly meant the point on the concentration scale where inhibition reaches its midpoint.

As to `COc1cc2nccc(Oc3ccc(NC(=O)c4cnc(C)c(C5=CCOCC5)c4O)cc3F)c2cc1OC` [Compound 19, 5-(3,6-Dihydro-2H-pyran-4-yl)-N-[4-(6,7-dimethoxyquinolin-4-yl)oxy-3-fluorophenyl]-4-hydroxy-6-methylpyridine-3-carboxamide], the IC50 was no more than 100 nM.

Values taken from patent publication US20240158393A1, “PYRIDONE COMPOUNDS AND METHODS OF USE” (Exelixis, Inc., priority 2021, published 2024).
